The values that follow come from US7163935B2, “Scorpionate-like pendant macrocyclic ligands, complexes and compositions thereof, and methods of using same” (The United States of America as represented by the …, priority 2002, dated 2007).

The nature of the assay: Complexation (formation) kinetics with Y(III), competing reaction with Arsenazo III, absorbance at 652 nm. The class given is physicochemical. The conditions noted are these: pH 4, room temperature. As to the method: Formation kinetics of Y(III) complexes of 1, 2, and DOTA (Macrocyclics) was measured by monitoring the absorption at 652 nm. To 2 mL of 1.6 mM YCl3 (from atomic absorption standard solution, Aldrich) and 5 mM Arsenazo III (Sigma) in 0.15 M NH4OAc (pH 4.0, metal-free), 20 μL of 10 mM ligand solution were added into a cell. After mixing (<5 sec), absorption of the solution at 652 nm (absorption wavelength of Y(III)-Arsenazo III) (Kline et al., Bioconjugate Chem., 1991, 2,26–31) was immediately followed over time at room temperature using an HP 8452A Diode Array Spectrophotometer, which was pre-blanked with a 5 mM Arsernazo III solution. Without any ligand added, the absorption was 0.089 for 1.6 mM YCl3 in 5 mM Arsernazo III solution at 652 nm.
The complexation kinetics of novel chelates 1, 2, and DOTA with Y(III) was qualitatively investigated using a competing reaction with Arsenazo III according to a modification of a previously reported procedure (Kodama et al., Inorg. Chem., 1991, 30, 1270–1273). The absorbance (A652) for the Y(III)-Arsenazo III complex was measured in the absence and in the presence of the chelates (1, 2, and DOTA) over 1 h. The results are shown in FIG. 3, which is a line graph of absorbance at 652 nm vs. reaction time (s), in which curve “a” represents Y-2, curve “b” represents Y-DOTA, and curve “c” represents Y-1. […] Complexation of Y(III) by 2 is assumed to occur to some degree, but the formed complex might undergo decomplexation due to an absence of complex stability, ultimately leading to an unfavorable equilibrium situation.

Where [1] appears, read: Arsenazo III competition, A652 over 1 h.

Take `Cl.Cl.Cl.Cl.O=C(O)CN1CCN(CCCN(CC(=O)O)CC(=O)O)CCN(CC(=O)O)CC1` [ligand 2, {[3-(4,7-bis-carboxymethyl)-[1,4,7]triazacyclononan-1-yl-propyl]-carbonyl-methylamino]-acetic acid tetrahydrochloride]: under setting [1], the “complex formation with Y(III) (rate)” value was “very slow”; the “degree of complexation of Y(III)” value was “slight and remained unchanged over the period of measurement”.
For the molecule `Cl.Cl.Cl.Cl.O=C(O)CN1CCN(CCN(CC(=O)O)CC(=O)O)CCN(CC(=O)O)CC1` [ligand 1, {[2-(4,7-bis-carboxymethyl)-[1,4,7]triazacyclononan-1-yl-ethyl]-carbonylmethyl-amino]-acetic acid tetrahydrochloride], the “complex formation with Y(III) (rate)” value under setting [1] is “quite rapid and is essentially complete very shortly after the starting point of measurement”. Moreover, the “rate of complex formation with Y(III) compared to DOTA” value (time scan measurements) is on record as “much greater rate than DOTA”.
Take `O=C(O)CN1CCN(CC(=O)O)CCN(CC(=O)O)CCN(CC(=O)O)CC1` [DOTA, 1,4,7,10-tetraazacyclododecane-N,N′,N″,N′″-tetraacetic acid, reference compound]: under setting [1], the “complex formation with Y(III) (rate)” value is on record as “sluggish”.
